{"source": "patent US6545039B1", "about": "(Viatris GmbH & Co. KG, priority 1999, dated 2003)", "experiment": "Tolerability of intravenous infusion rates in healthy subjects", "type": "in vivo, human", "conditions": "i.v., all infusion rates used (100, 200, 600 mg/min)", "source_text": "The following results were obtained here. 1.", "data": [{"smiles": "O=C(O)CCCCC1CCSS1", "note": "(stereo not drawn) [α-lipoic acid]", "values": [{"measurement": "tolerability of infusion rate", "value": "excellently tolerated"}]}]}
